Measurements reported in the NIST ThermoML archive (doi:10.1016/j.jct.2011.06.012).

Test: xn = mol fraction of the nth substance listed
Settings: Liquid, Bellows volumetry

CC(C)C [2-methylpropane] + O=C=O
mass density [kg/m3]
Settings | 280 K | 300 K | 320 K | 340 K | 360 K | 380 K | 400 K | 420 K | 440 K
3000 kPa, x2 = 0.2482 | 611.63 | – | – | – | – | – | – | – | –
3000 kPa, x2 = 0.4718 | 651.84 | – | – | – | – | – | – | – | –
5000 kPa, x2 = 0.2482 | 615.96 | – | 552.16 | – | – | – | – | – | –
5000 kPa, x2 = 0.4718 | 658.57 | 614.91 | 560.46 | – | – | – | – | – | –
5000 kPa, x2 = 0.7506 | 741.3 | – | – | – | – | – | – | – | –
10000 kPa, x2 = 0.2482 | 625.46 | – | 569.21 | – | 501.22 | – | 408.28 | – | –
10000 kPa, x2 = 0.4718 | 672.04 | 634.66 | 592.64 | 543.45 | 481.3 | – | – | – | –
10000 kPa, x2 = 0.7506 | 765.85 | – | 614.39 | – | – | – | – | – | –
20000 kPa, x2 = 0.2482 | 641.52 | – | 593.88 | – | 542.86 | – | 486.62 | – | 428.1
20000 kPa, x2 = 0.4718 | 693.75 | 662.67 | 630.32 | 596.56 | 560.5 | 521.68 | 481.65 | 441.54 | 402.95
20000 kPa, x2 = 0.7506 | 800.45 | – | 697.56 | – | 574.95 | – | – | – | –
30000 kPa, x2 = 0.2482 | 655.06 | – | 611.98 | – | 568.79 | – | 523.46 | – | 479.05
30000 kPa, x2 = 0.4718 | 710.92 | 683.38 | 655.66 | 627.77 | 598.86 | 568.93 | 539.19 | 509.95 | 481.23
30000 kPa, x2 = 0.7506 | 826.02 | – | 740.51 | – | 649.75 | – | 557.06 | – | 473.55
40000 kPa, x2 = 0.2482 | 665.95 | – | 627.15 | – | 588.52 | – | 548.72 | – | 511.07
40000 kPa, x2 = 0.4718 | 725.26 | 700.1 | 675.36 | 650.8 | 625.7 | 600.05 | 574.86 | 550.57 | 526.82
40000 kPa, x2 = 0.7506 | 846.38 | – | 771.26 | – | 694.72 | – | 618.58 | – | 548.5
50000 kPa, x2 = 0.2482 | 676.07 | – | 639.69 | – | 604.55 | – | 568.35 | – | 534.44
50000 kPa, x2 = 0.4718 | 737.44 | 714.21 | 691.66 | 669.07 | 646.76 | 623.65 | 601.24 | 579.87 | 559.05
50000 kPa, x2 = 0.7506 | 863.38 | – | 795.16 | – | 727.44 | – | 660.8 | – | 599.76
60000 kPa, x2 = 0.2482 | 684.83 | – | 650.61 | – | 617.73 | – | 584.33 | – | 553.6
60000 kPa, x2 = 0.4718 | 748.54 | 726.58 | 705.67 | 684.42 | 664.02 | 642.83 | 622.39 | 602.9 | 584.01
60000 kPa, x2 = 0.7506 | 878.75 | – | 815.43 | – | 753.47 | – | 693.37 | – | 637.87
70000 kPa, x2 = 0.2482 | 693.01 | – | 660.32 | – | 629.43 | – | 598.36 | – | 569.47
70000 kPa, x2 = 0.4718 | 758.63 | 737.54 | 717.84 | 697.86 | 678.79 | 658.77 | 640.1 | 622.11 | 604.56
70000 kPa, x2 = 0.7506 | 892.04 | – | 832.58 | – | 775.21 | – | 719.26 | – | 668.37
80000 kPa, x2 = 0.2482 | 700.46 | – | 669.23 | – | 639.78 | – | 610.26 | – | 583.24
80000 kPa, x2 = 0.4718 | 767.66 | 747.72 | 728.73 | 709.95 | 691.87 | 672.89 | 655.36 | 638.65 | 622.24
80000 kPa, x2 = 0.7506 | 904.12 | – | 847.76 | – | 793.79 | – | 741.54 | – | 694.04
90000 kPa, x2 = 0.2482 | 707.4 | – | 677.43 | – | 649.26 | – | 620.93 | – | 595.28
90000 kPa, x2 = 0.4718 | 775.73 | 756.68 | 738.7 | 720.77 | 703.51 | 685.61 | 668.68 | 652.88 | 637.3
90000 kPa, x2 = 0.7506 | 915.3 | – | 861.33 | – | 810.34 | – | 760.76 | – | 716.21
100000 kPa, x2 = 0.2482 | 713.94 | – | 685.01 | – | 658 | – | 630.87 | – | 606.31
100000 kPa, x2 = 0.4718 | 783.73 | 764.82 | 748.11 | 730.63 | 714.09 | 697.01 | 680.77 | 665.6 | 650.87
100000 kPa, x2 = 0.7506 | 925.43 | – | 873.81 | – | 825.34 | – | 778 | – | 735.56
120000 kPa, x2 = 0.2482 | 725.79 | – | 698.63 | – | 673.4 | – | 647.91 | – | 625.43
120000 kPa, x2 = 0.4718 | 797.65 | 780.34 | 764.51 | 748.22 | 733.04 | 716.82 | 701.98 | 688.04 | 674.34
120000 kPa, x2 = 0.7506 | 944.22 | – | 895.88 | – | 851.1 | – | 807.55 | – | 768.56
140000 kPa, x2 = 0.2482 | 736.43 | – | 710.75 | – | 686.88 | – | 662.89 | – | 641.8
140000 kPa, x2 = 0.4718 | 810.05 | 794.03 | 778.96 | 764.19 | 749.43 | 734.35 | 720.03 | 707.29 | 694.6
140000 kPa, x2 = 0.7506 | 960.61 | – | 915.09 | – | 872.92 | – | 832.23 | – | 796.08
160000 kPa, x2 = 0.2482 | 746.22 | – | 721.58 | – | 699.29 | – | 675.97 | – | 656.01
160000 kPa, x2 = 0.4718 | 821.36 | 805.98 | 791.76 | 777.55 | 763.95 | 749.48 | 735.72 | 723.63 | 711.68
160000 kPa, x2 = 0.7506 | 975.64 | – | 932.24 | – | 892.29 | – | 854.07 | – | 819.85
180000 kPa, x2 = 0.2482 | 755.07 | – | 731.49 | – | 710.13 | – | 687.97 | – | 668.66
180000 kPa, x2 = 0.4718 | 831.97 | 817 | 803.87 | 790.06 | 777.13 | 763.2 | 749.97 | 738.5 | 726.86
180000 kPa, x2 = 0.7506 | 989.13 | – | 947.81 | – | 909.66 | – | 873.25 | – | 840.83
200000 kPa, x2 = 0.2482 | 763.28 | – | 740.45 | – | 720.21 | – | 698.66 | – | 680.35
200000 kPa, x2 = 0.4718 | 841.63 | 827.43 | 814.43 | 801.25 | 789.12 | 775.73 | 763.13 | 752.04 | 741.37
200000 kPa, x2 = 0.7506 | 1001.91 | – | 962.05 | – | 925.27 | – | 890.48 | – | 859.57
